Assay results from patent US10981932B2, “Macrocyclic indole derivatives” (Bayer Aktiengesellschaft, priority 2016, dated 2021).
Where a name gives a salt, the structure may show the parent alone. Read-outs that look alike come from different tables or passages of the source.

Key:
[1] = biological target: MCL-1 (Homo sapiens, UniProt Q07820); test: Protein-protein interaction assay MCL-1/Noxa BH3 peptide (MCL-1 assay), TR-FRET; assay type: binding; settings: MBP-MCL-1 / Noxa BH3-derived peptide, median
Method: Protein-Protein Interaction Assay: MCL-1/Noxa BH3 Peptide (MCL-1 Assay) […]
In the assay 11 different concentrations of each compound (0.1 nM, 0.33 nM, 1.1 nM, 3.8 nM, 13 nM, 44 nM, 0.15 μM, 0.51 μM, 1.7 μM, 5.9 μM and 20 μM) were typically measured as duplicates in the same microtiter plate. For that, 100-fold concentrated DMSO solutions were prepared by serial dilutions (1:3.4) of a 2 mM stock solution in a clear, 384-well microtiter plate (Greiner Bio-One, Frickenhausen, Germany). From there, 50 ni were transferred in a dark test plate (Greiner Bio-One, Frickenhausen, Germany). The assay was initiated by addition of 2 μl of a 2.5-fold concentrated MBP-MCL-1 solution (usually for a 1 nM end concentration in 5 μl reaction volume) in aqueous assay buffer [50 mM Tris/HCl pH 7, 100 mM sodium chloride (NaCl), 50 mM potassium fluoride (KF), 0.005% Tween-20, 2 mM DTT, 0.1% bovine gamma globulin (BGG)] to the compounds in the assay plate. This was followed by a 10-minute incubation step at 22° C. for pre-equilibration of the putative complex between MBP-MCL-1 and the compounds. After that.
The mixture was incubated in the dark for one hour at 22° C. and then overnight at 4° C. The formation of MCL-1/Noxa complexes was determined by measuring the resonance energy transfer of the anti-MBP- Eu-cryptate antibody to the streptavidin-XL665 present in the reaction. For that purpose, the fluorescence emission at 620 nm and 665 nm after excitation at 330-350 nm was measured in a TR-FRET measuring instrument, for instance a Rubystar or a Pherastar (both from BMG Lab Technologies, Offenburg, Germany) or a Viewlux (Perkin-Elmer). The ratio of the emission at 665 nm and at 622 nm was used as indicator of the amount of MCL-1/NOXA complexes present.
The resulting data (ratio) were normalized, taking 0% inhibition as the mean value of control measurements (usually 32 data points) where all reagents were included. In this case 50 nl DMSO were used instead of compounds. A 100% inhibition corresponded to the mean value of control measurements (usually 32 data points) where all reagents except MCL-1 were included. IC50 values were determined by regression analysis based on a 4 parameter equation (minimum, maximum, IC50, Hill; Y=Max+(Min−Max)/(1+(X/IC50)^Hill) using the Screener Software (Genedata).

[2] = tested on: SUDHL5; test: Induction of cytotoxicity (CellTiter-Glo, 5 h), SUDHL5
[3] = tested on: A2780; test: Anti-proliferative effect (CellTiter-Glo, 72 h), A2780; assay type: cell-based; settings: A2780 cells, median, read-out: IC50 antiproliferation assay A2780 [M] (median)
Method: (§1) Assessment of the Anti-Proliferative Effect of Compounds in Different Cell Lines
(§2) The impact of compounds on the proliferation of different cell lines was assessed using the CellTiter-Glo® Luminescent Cell Viability reagent from Promega (G7573). Of note, SUDHL10 and SUDHL5 (DLBCL), NCI-H929 (Multiple Myeloma), A2780 (ovarian carcinoma) as well as MV-4-11(AML) cells are sensitive to MCL-1 inhibition.
(§3) In parallel, cells were plated in a reference (day 0) plate for time zero determination.
(§4) Rim wells were excluded. The cells were incubated for 72 h hours in a humidified incubator at 37° C. The day 0 plate was measured by adding 30 μl/well of CTG solution (CellTiter-Glo® Luminescent Cell Viability reagent, Promega G7573) to time zero wells in the reference plate followed by a 10 minutes incubation and luminescence reading at 0.1 ms, using the PHERAstar FS microplate reader (BMG Labtech).
(§5) After 72 h incubation, the treated plates were measured in the same way as the day 0 plate mentioned above.

[4] = tested on: SUDHL5; test: Anti-proliferative effect (CellTiter-Glo, 72 h), SUDHL5; assay type: cell-based; settings: SUDHL5 cells, antiproliferation, 72 h incubation, median, read-out: Antiproli SUDHL5 [M] (median)
Method: as §1, §2, §3, §4, §5

[5] = tested on: SUDHL5; test: Induction of caspase-3/7 activity (Caspase-Glo 3/7), SUDHL5; assay type: cell-based; settings: caspase-3/7 induction, SUDHL5 cells, 3 h treatment, median
Method: (§6) Induction of Caspase-317 Activity Upon Treatment of Cells with Selected Compounds
(§7) The BH3-domain of MCL-1 sequesters pro-apoptotic proteins, thereby inhibiting apoptosis. In contrast, MCL-1 inhibitors are expected to antagonize this effect leading to an increase in apoptosis, which can be determined by measuring the activity of caspase-3/7.
(§8) The activity of caspase-3/7 was determined in DLBCL (Diffuse large B-cell lymphoma) cell lines (SUDHL5 and SUDHL10) upon treatment with different compounds, using the Caspase-Glo® 3/7 reagent from Promega (G8092).
(§9) Rim wells were excluded. The cells were incubated for 3 h hours in a humidified incubator at 37° C.
(§10) For the evaluation of the results, the background measured with “medium-only” was subtracted from all other values. […] The Bella DRC Master Sheet was used to calculate EC50s, with fixed C0=1 and CI=plateaulmax induction for the reference compound.

[6] = tested on: SUDHL10; test: Induction of cytotoxicity (CellTiter-Glo, 5 h), SUDHL10
[7] = tested on: SUDHL10; test: Induction of caspase-3/7 activity (Caspase-Glo 3/7), SUDHL10; assay type: cell-based; settings: caspase-3/7 induction, SUDHL10 cells, 3 h treatment, median
Method: as §6, §7, §8, §9, §10

[8] = Homo sapiens, SU-DHL-5, 5 h, read-out: Cytotox SUDHL5 [M] (median), SUDHL5 cells, cytotoxicity induction, CellTiter-Glo, 5 h incubation, median
[9] = Homo sapiens, SU-DHL10, 5 h, read-out: Cytotox SUDHL10 [M] (median), SUDHL10 cells, cytotoxicity induction, CellTiter-Glo, 5 h incubation, median
[10] = read-out: Cytotox SUDHL5 [M] (median), SUDHL5 cells, cytotoxicity induction, CellTiter-Glo, 5 h incubation, median
[11] = read-out: Cytotox SUDHL10 [M] (median), SUDHL10 cells, cytotoxicity induction, CellTiter-Glo, 5 h incubation, median

Sequence of MCL-1 (Q07820 whole entry): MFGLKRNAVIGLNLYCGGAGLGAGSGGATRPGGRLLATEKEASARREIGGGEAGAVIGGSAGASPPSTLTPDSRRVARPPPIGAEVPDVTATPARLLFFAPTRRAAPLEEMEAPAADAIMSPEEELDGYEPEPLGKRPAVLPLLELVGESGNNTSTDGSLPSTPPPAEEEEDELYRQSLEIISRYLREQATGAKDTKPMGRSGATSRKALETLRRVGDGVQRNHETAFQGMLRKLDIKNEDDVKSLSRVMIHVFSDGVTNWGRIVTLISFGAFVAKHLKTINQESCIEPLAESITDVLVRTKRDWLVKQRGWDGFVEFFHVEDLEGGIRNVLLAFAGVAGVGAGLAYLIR

SMILES	IC50 [1] [µM]	IC50 ([3]; Homo sapiens, A2780, 72 h) [M]	IC50 ([4]; Homo sapiens, SU-DHL-5, 72 h) [M]	EC50 ([5]; Homo sapiens, SU-DHL-5, 3 h) [µM]	EC50 ([7]; Homo sapiens, SU-DHL10, 3 h) [µM]	IC50 [3] [M]	IC50 [4] [M]	EC50 [5] [µM]	EC50 [7] [µM]	IC50 [2, 8] [M]	IC50 [6, 9] [M]	IC50 [2, 10] [M]	IC50 [6, 11] [M]
Cc1c2c(nn1C)COCCCn1c(C(=O)O)c(CCCOc3cccc4ccccc34)c3cccc-2c31 (single isomer, unassigned; enantiomer 2) [Example 065, 10,11-dimethyl-1-[3-(naphthalen-1-yloxy)propyl]-5,6,8,10-tetrahydro-4H-pyrazolo[4′,3′:8,9][1,5]oxazecino[7,6,5-hi]indole-2-carboxylic acid-N-ethylethanamine Salt (Enantiomer 2)]	0.0393					> 3.3e-05	2.61e-05	> 33	> 33			> 3.3e-05	> 3.3e-05
CCc1nn(C)c2c1-c1c(C)ccc3c(C(C)CCOc4cccc5ccccc45)c(C(=O)O)n(c13)CCCCOC2 (racemic) [Example 271, 3-ethyl-1,4-dimethyl-7-[4-(naphthalen-1-yloxy)butan-2-yl]-1,10,11,12,13,15-hexahydropyrazolo[4′,3′:9,10][1,6]oxazacycloundecino[8,7,6-hi]indole-8-carboxylic Acid]	0.0306	1.83e-05	1.27e-05	> 33	> 33					3.28e-05	> 3.3e-05		
COc1c2c(nn1C)COCCCCn1c(C(=O)O)c(CCCOc3cccc4ccccc34)c3cccc-2c31 (single isomer, unassigned) [Example 209, 3-methoxy-2-methyl-7-[3-(naphthalen-1-yloxy)propyl]-2,10,11,12,13,15-hexahydropyrazolo[4′,3′:9,10][1,6]oxazacycloundecino[8,7,6-hi]indole-8-carboxylate]	0.025					1.58e-05	1.58e-05	> 33	> 33			> 3.3e-05	> 3.3e-05
CCc1nn(C)c2c1-c1c(C)ccc3c(C(C)CCOc4cccc5cc(F)ccc45)c(C(=O)O)n(c13)CCCCOC2 (single isomer, unassigned) [Example 263, 3-ethyl-7-{4-[(6-fluoronaphthalen-1-yl)oxy]butan-2-yl}-1,4-dimethyl-1,10,11,12,13,15-hexahydropyrazolo[4′,3′:9,10][1,6]oxazacycloundecino[8,7,6-hi]indole-8-carboxylic Acid]	0.926					1.01e-05	4.61e-06	> 33	> 33			> 3.3e-05	2.79e-05
Cc1nn(C)c2c1-c1cccc3c(CCCOc4cccc5cc(F)ccc45)c(C(=O)O)n(c13)CCCOC2 (single isomer, unassigned; enantiomer 2) [Example 048, 1-{3-[(6-fluoronaphthalen-1-yl)oxy]propyl}-9,11-dimethyl-5,6,8,9-tetrahydro-4H-pyrazolo[4′,3′:8,9][1,5]oxazecino[7,6,5-hi]indole-2-carboxylic acid-N-ethylethanamine Salt (Enantiomer 2)]	0.0136	1.01e-05	4.84e-06	13.2	17.8					1.19e-05	1.71e-05		
CCc1c2c(nn1C)COCCCCn1c(C(=O)O)c(CCCOc3cccc4ccccc34)c3cccc-2c31 (single isomer, unassigned; enantiomer 2) [Example 149, 3-Ethyl-2-methyl-7-[3-(1-naphthyloxy)propyl]-2,10,11,12,13,15-hexahydropyrazolo[4′,3′:9,10][1,6]oxazacycloundecino[8,7,6-hi]indole-carboxylic acid-N-ethylethanamine Salt (Enantiomer 2)]	0.0666					2.84e-05	1.26e-05	> 33	> 33			> 3.3e-05	> 3.3e-05

The remaining molecules from weak to strong by IC50 [1], led by results:

IC50 [1] [µM]	IC50 ([3]; Homo sapiens, A2780, 72 h) [M]	IC50 ([4]; Homo sapiens, SU-DHL-5, 72 h) [M]	EC50 ([5]; Homo sapiens, SU-DHL-5, 3 h) [µM]	EC50 ([7]; Homo sapiens, SU-DHL10, 3 h) [µM]	IC50 [3] [M]	IC50 [4] [M]	EC50 [5] [µM]	EC50 [7] [µM]	SMILES	IC50 [2, 8] [M]	IC50 [6, 9] [M]	IC50 [2, 10] [M]	IC50 [6, 11] [M]
0.0202	7.1e-06	6.92e-06	23.5	31.8					Cc1c2c(nn1CC(F)(F)F)COC/C=C\Cn1c(C(=O)O)c(CCCOc3cccc4ccccc34)c3cccc-2c31 (racemic) [Example 091, (rac)-(11Z)-3-methyl-7-[3-(naphthalen-1-yloxy)propyl]-2-(2,2,2-trifluoroethyl)-2,10,13,15-tetrahydropyrazolo[4′,3′:9,10][1,6]oxazacycloundecino[8,7,6-hi]indole-8-carboxylic Acid]	1.48e-05	1.89e-05		
0.00751	2.89e-05	9.89e-06	3.75	17.1					Cc1c2c(nn1CC(F)(F)F)COCCCCn1c(C(=O)O)c(CCCOc3cccc4ccccc34)c3cccc-2c31 [Example 241, 3-methyl-7-[3-(naphthalen-1-yloxy)propyl]-2-(2,2,2-trifluoroethyl)-210,11,12,13,15-hexahydropyrazolo[4′,3′:9,10][1,6]oxazacycloundecino[8,7,6-hi]indole-8-carboxylic Acid]	4.64e-06	1.92e-05		
0.00384	> 3.3e-05	1.71e-05		24.1			6.76		CCn1nc(C2CC2)c2c1COCCCCn1c(C(=O)O)c(CCCOc3cccc4ccccc34)c3cccc-2c31 (single isomer, unassigned; enantiomer 1) [Example 089, 3-cyclopropyl-1-ethyl-7-[3-(naphthalen-1-yloxy)propyl]-1,10,11,12,13,15-hexahydropyrazolo[4′,3′:9,10][1,6]oxazacycloundecino[8,7,6-hi]indole-8-carboxylic acid-N-ethylethanamine Salt (Enantiomer 1)]		3e-05	7e-06	
